# Results reported in ChEMBL document CHEMBL3397033, “Bioactive benzofuran derivatives: moracins A-Z in medicinal chemistry” (Eur J Med Chem, 2015).
# Tests used:
# [1] = Cytotoxicity against human BGC823 cells after 96 hrs by MTT assay; type: functional, cell-based; settings: BGC-823, 96 h
# A2780 = assay: Cytotoxicity against human A2780 cells after 96 hrs by MTT assay; type: functional, cell-based; settings: A2780, 96 h
# Klebsiella pneumoniae [2] = assay: Antimicrobial activity against Klebsiella pneumoniae; type: functional
# [3] = Cytotoxicity against human Bel7402 cells after 96 hrs by MTT assay; type: functional, cell-based; settings: Bel-7402, 96 h
# Escherichia coli [4] = assay: Antimicrobial activity against Escherichia coli; type: functional
# A549 = assay: Cytotoxicity against human A549 cells after 96 hrs by MTT assay; type: functional, cell-based; settings: A549, 96 h
# [5] = Cytotoxicity against human HCT8 cells after 96 hrs by MTT assay; type: functional, cell-based; settings: HCT-8, 96 h
# Pseudomonas aeruginosa [6] = assay: Antimicrobial activity against Pseudomonas aeruginosa; type: functional
# [7] = Antifungal activity against Stigmina mori; type: functional
# [8] = Antifungal activity against Fusarium solani f. sp. mori; type: functional
# [9] = Antifungal activity against Cochliobolus miyabeanus; type: functional; settings: Bipolaris oryzae
# [10] = Antifungal activity against Diaporthe nomurai; type: functional
# [11] = Antifungal activity against Fusarium roseum; type: functional
# [12] = Antifungal activity against Fusarium lateritium f. sp. mori; type: functional
# Rosellinia necatrix = assay: Antifungal activity against Rosellinia necatrix; type: functional
# Enterococcus faecalis [13] = assay: Microbicidal activity against Streptococcus faecalis by liquid microdilution assay; type: functional
# Shigella dysenteriae [14] = assay: Antimicrobial activity against Shigella dysenteriae by liquid microdilution assay; type: functional
# Salmonella typhi [15] = assay: Microbicidal activity against Salmonella typhi by liquid microdilution assay; type: functional, Salmonella enterica subsp. enterica serovar Typhi; settings: Salmonella enterica
# [16] = Antioxidant activity assessed as DPPH radical scavenging activity measured as discoloration at 100 ug/ml; type: physicochemical
# [17] = Antioxidant activity assessed as DPPH radical scavenging activity; type: physicochemical
# Shigella dysenteriae [18] = assay: Microbicidal activity against Shigella dysenteriae by liquid microdilution assay; type: functional
# Microsporum audouinii [19] = assay: Antimicrobial activity against Microsporum audouinii by liquid microdilution assay; type: functional
# [20] = Antioxidant activity assessed as DPPH radical scavenging activity measured as discoloration at 12.5 ug/ml; type: physicochemical
# Citrobacter freundii [21] = assay: Microbicidal activity against Citrobacter freundii by liquid microdilution assay; type: functional
# Escherichia coli [22] = assay: Antimicrobial activity against Escherichia coli by liquid microdilution assay; type: functional
# Bacillus cereus [23] = assay: Antimicrobial activity against Bacillus cereus by liquid microdilution assay; type: functional
# Candida albicans [24] = assay: Microbicidal activity against Candida albicans by liquid microdilution assay; type: functional
# Salmonella typhi [25] = assay: Antimicrobial activity against Salmonella typhi by liquid microdilution assay; type: functional, Salmonella enterica subsp. enterica serovar Typhi; settings: Salmonella enterica
# Bacillus cereus [26] = assay: Microbicidal activity against Bacillus cereus by liquid microdilution assay; type: functional
# Pseudomonas aeruginosa [27] = assay: Microbicidal activity against Pseudomonas aeruginosa by liquid microdilution assay; type: functional
# Staphylococcus aureus [28] = assay: Antimicrobial activity against Staphylococcus aureus by liquid microdilution assay; type: functional
# Pseudomonas aeruginosa [29] = assay: Antimicrobial activity against Pseudomonas aeruginosa by liquid microdilution assay; type: functional
# Staphylococcus aureus [30] = assay: Microbicidal activity against Staphylococcus aureus by liquid microdilution assay; type: functional
# Citrobacter freundii [31] = assay: Antimicrobial activity against Citrobacter freundii by liquid microdilution assay; type: functional
# Klebsiella pneumoniae [32] = assay: Microbicidal activity against Klebsiella pneumoniae by liquid microdilution assay; type: functional
# Klebsiella pneumoniae [33] = assay: Antimicrobial activity against Klebsiella pneumoniae by liquid microdilution assay; type: functional
# Microsporum audouinii [34] = assay: Microbicidal activity against Microsporum audouinii by liquid microdilution assay; type: functional
# [35] = Antioxidant activity assessed as DPPH radical scavenging activity measured as discoloration at 25 ug/ml; type: physicochemical
# Candida albicans [36] = assay: Antimicrobial activity against Candida albicans by liquid microdilution assay; type: functional
# [37] = Antioxidant activity assessed as DPPH radical scavenging activity measured as discoloration at 50 ug/ml; type: physicochemical
# Escherichia coli [38] = assay: Microbicidal activity against Escherichia coli by liquid microdilution assay; type: functional
# Enterococcus faecalis [39] = assay: Antimicrobial activity against Streptococcus faecalis by liquid microdilution assay; type: functional
structure (smiles),measurement,setting,value
C/C(=C/Cc1c(O)c2c(c3cc(-c4cc(O)cc(O)c4)oc13)C=CC(C)(C)O2)CCCC(C)(C)O,IC50,[1],8.3 µg/mL
same,IC50,A2780,> 10 µg/mL
same,MIC,Klebsiella pneumoniae [2],> 100 µg/mL
same,IC50,[3],> 10 µg/mL
same,MIC,Escherichia coli [4],> 100 µg/mL
same,IC50,A549,> 10 µg/mL
same,IC50,[5],9.2 µg/mL
same,MIC,Pseudomonas aeruginosa [6],> 100 µg/mL
CC1(C)C=Cc2c(c(O)cc3cc(-c4cc(O)cc(O)c4)oc23)O1,MIC,Klebsiella pneumoniae [2],> 100 µg/mL
same,MIC,Escherichia coli [4],> 100 µg/mL
same,MIC,Pseudomonas aeruginosa [6],> 100 µg/mL
CC1(C)Oc2cc3oc(-c4cc(O)cc(O)c4)cc3cc2C(O)C1O (centres undefined),MIC,Klebsiella pneumoniae [2],> 100 µg/mL
same,MIC,Escherichia coli [4],> 100 µg/mL
same,MIC,Pseudomonas aeruginosa [6],> 100 µg/mL
CC1=CCc2c(c(O)cc3cc(-c4cc(O)cc(O)c4)oc23)OC1,MIC,Klebsiella pneumoniae [2],> 100 µg/mL
same,MIC,Escherichia coli [4],> 100 µg/mL
same,MIC,Pseudomonas aeruginosa [6],> 100 µg/mL
CC1(C)C=Cc2c(cc(O)cc2-c2cc3ccc(O)cc3o2)O1,MIC,[7],200 µg/mL
same,MIC,[8],200 µg/mL
same,MIC,Klebsiella pneumoniae [2],> 100 µg/mL
same,MIC,Escherichia coli [4],> 100 µg/mL
same,MIC,[9],100 µg/mL
same,MIC,[10],15 µg/mL
same,MIC,[11],15 µg/mL
same,MIC,[12],50 µg/mL
same,MIC,Rosellinia necatrix,15 µg/mL
same,MIC,Pseudomonas aeruginosa [6],> 100 µg/mL
COc1cc2oc(-c3cc(O)cc(O)c3)cc2cc1CCC(C)(C)O,MIC,Klebsiella pneumoniae [2],> 100 µg/mL
same,MIC,Escherichia coli [4],> 100 µg/mL
same,MIC,Pseudomonas aeruginosa [6],> 100 µg/mL
COc1cc2oc(-c3cc(O)cc(O)c3)cc2cc1O,MIC,Klebsiella pneumoniae [2],> 100 µg/mL
same,MIC,Escherichia coli [4],> 100 µg/mL
same,MIC,Pseudomonas aeruginosa [6],> 100 µg/mL
O=Cc1cc2cc(-c3cc(O)cc(O)c3)oc2cc1O,IC50,[1],7.6 µg/mL
same,IC50,A2780,6.9 µg/mL
same,MIC,Klebsiella pneumoniae [2],> 100 µg/mL
same,IC50,[3],6.8 µg/mL
same,MIC,Escherichia coli [4],> 100 µg/mL
same,IC50,A549,> 10 µg/mL
same,IC50,[5],6.3 µg/mL
same,MIC,Pseudomonas aeruginosa [6],> 100 µg/mL
COc1cc(O)cc(-c2cc3ccc(O)cc3o2)c1CC=C(C)C [MORACIN I],MIC,Klebsiella pneumoniae [2],> 100 µg/mL
same,MIC,Escherichia coli [4],> 100 µg/mL
same,MIC,Pseudomonas aeruginosa [6],> 100 µg/mL
CC1=CCc2c(ccc3cc(-c4cc(O)cc(O)c4)oc23)OC1,MIC,[7],50 µg/mL
same,MIC,[8],500 µg/mL
same,MIC,Klebsiella pneumoniae [2],> 100 µg/mL
same,MIC,Escherichia coli [4],> 100 µg/mL
same,MIC,[9],50 µg/mL
same,MIC,[10],50 µg/mL
same,MIC,[11],15 µg/mL
same,MIC,[12],500 µg/mL
same,MIC,Rosellinia necatrix,15 µg/mL
same,MIC,Pseudomonas aeruginosa [6],> 100 µg/mL
COc1c(O)cc2oc(-c3cc(O)cc(O)c3)cc2c1CC=C(C)C,MBC,Enterococcus faecalis [13],39 µg/mL
same,MIC,Shigella dysenteriae [14],5 µg/mL
same,MBC,Salmonella typhi [15],20 µg/mL
same,Activity,[16],83.04%
same,EC50,[17],4.12 µg/mL
same,MBC,Shigella dysenteriae [18],10 µg/mL
same,MIC,Microsporum audouinii [19],39 µg/mL
same,Activity,[20],61.58%
same,MBC,Citrobacter freundii [21],312 µg/mL
same,MIC,Klebsiella pneumoniae [2],> 100 µg/mL
same,MIC,Escherichia coli [22],5 µg/mL
same,MIC,Escherichia coli [4],> 100 µg/mL
same,MIC,Bacillus cereus [23],5 µg/mL
same,MFC,Candida albicans [24],20 µg/mL
same,MIC,Salmonella typhi [25],5 µg/mL
same,MBC,Bacillus cereus [26],39 µg/mL
same,MBC,Pseudomonas aeruginosa [27],20 µg/mL
same,MIC,Staphylococcus aureus [28],10 µg/mL
same,MIC,Pseudomonas aeruginosa [29],5 µg/mL
same,MBC,Staphylococcus aureus [30],39 µg/mL
same,MIC,Citrobacter freundii [31],156 µg/mL
same,MBC,Klebsiella pneumoniae [32],78 µg/mL
same,MIC,Klebsiella pneumoniae [33],39 µg/mL
same,MFC,Microsporum audouinii [34],78 µg/mL
same,Activity,[35],65.63%
same,MIC,Candida albicans [36],10 µg/mL
same,Activity,[37],71.72%
same,MBC,Escherichia coli [38],10 µg/mL
same,MIC,Enterococcus faecalis [39],10 µg/mL
same,MIC,Pseudomonas aeruginosa [6],> 100 µg/mL
